The values that follow are results of earlier work, collected in patent publication US20250312278A1, “BRIVARACETAM PHARMACEUTICAL COMPOSITION, PREPARATION METHOD THEREFOR AND USE THEREOF” (SHANGHAI BOCIMED PHARMACEUTICAL CO., LTD., priority 2020, published 2025).

For series [1] the following is noted: in vivo.

Converted amounts (≈) assume the structure as drawn. Read-outs that look alike come from different tables or passages of the source.

Turning to `CCC[C@@H]1CC(=O)N(C(CC)C(N)=O)C1` (stereo partly drawn) [Brivaracetam, (2S)-2-[(4R)-2-oxo-4-propyltetrahydron-1H-pyrro-1-yl] butanamide], in series [1], the terminal half-life period is listed as 9 h. Besides, the solubility is, setting by setting: (buffer solution with a pH of 4.5) 850 mg/mL (≈ 4000 mM); (buffer solution with a pH of 7.4) 840 mg/mL (≈ 3960 mM); (hydrochloric acid solution with a pH of 1.2) 850 mg/mL (≈ 4000 mM); (water) 700 mg/mL (≈ 3300 mM).

As a reminder, the solubility is how much of the substance goes into solution per volume.
